In patent US20210078917A1, “FUNGICIDAL FERTILIZER COMPOSITION COMPRISING POTASSIUM PHOSPHITE AND GAMMA-POLY-GLUTAMIC ACID” (JIANGSU HUIFENG BIO AGRICULTURE CO., LTD., priority 2018, published 2021):

Test system: soybean
Assay: Yield increase test of soybean
Format: in vivo
Conditions: for Yield (667 M^2): per 667 M^2
Description: Fertilization method: The fertilizer was co-applied with other fertilizers. The yield, quality and control effect on disease on soybean were determined.

γ-poly-glutamic acid
Branches (15 g/mu): 17.5 count | Increase rate (branches) (15 g/mu): 1.2% | Increase rate (weight per 100 grains) (15 g/mu): 2.8% | Increase rate (yield) (15 g/mu): 2.9% | Weight per 100 grains (15 g/mu): 25.43 g | Yield (667 M^2) (15 g/mu): 181.7 | Branches (50 g/mu): 17.8 count | Increase rate (branches) (50 g/mu): 2.7% | Increase rate (weight per 100 grains) (50 g/mu): 3.5% | Increase rate (yield) (50 g/mu): 4.5% | Weight per 100 grains (50 g/mu): 25.61 g | Yield (667 M^2) (50 g/mu): 184.5 | Branches (100 g/mu): 18.0 count | Increase rate (branches) (100 g/mu): 4.1% | Increase rate (weight per 100 grains) (100 g/mu): 4.1% | Increase rate (yield) (100 g/mu): 5.7% | Weight per 100 grains (100 g/mu): 25.75 g | Yield (667 M^2) (100 g/mu): 186.7 | Branches (300 g/mu): 18.1 count | Increase rate (branches) (300 g/mu): 4.6% | Increase rate (weight per 100 grains) (300 g/mu): 5.3% | Increase rate (yield) (300 g/mu): 7.3% | Weight per 100 grains (300 g/mu): 26.05 g | Yield (667 M^2) (300 g/mu): 189.5 | Branches (600 g/mu): 18.3 count | Increase rate (branches) (600 g/mu): 5.7% | Increase rate (weight per 100 grains) (600 g/mu): 6.8% | Increase rate (yield) (600 g/mu): 10.5% | Weight per 100 grains (600 g/mu): 26.42 g | Yield (667 M^2) (600 g/mu): 195.1
